According to patent US20060089387A1, “Stabilized pharmaceutical composition comprising antidiabetic agent” (priority 2004, published 2006):

What was measured:
[1] = pKa of free rosiglitazone and free pioglitazone; type: physicochemical
[2] = Solubility (complete dissolution) in solvents; type: physicochemical; conditions: in words

| Structure (SMILES) | pKa1 [1] | pKa2 [1] | water solubility [2] |
| --- | --- | --- | --- |
| CCc1ccc(CCOc2ccc(CC3SC(=O)NC3=O)cc2)nc1 (racemic) [free pioglitazone, [(±)5-[[2-(5-ethyl-2-pyridinyl)ethoxyl]phenyl]methyl]-thiazolidine-2,4-dione] | 6.5 | 6.1 | poorly water-soluble |
| CN(CCOc1ccc(CC2SC(=O)NC2=O)cc1)c1ccccn1 (racemic) [free rosiglitazone, (±)5-[4-[2-(N-methyl-N-(2-pyridyl)amino)ethoxy]benzyl]thiazolidine-2,4-dione] | 6.8 | 6.1 | poorly water-soluble |
